Patent publication US9085576B2 (AMGEN INC., priority 2013, dated 2015)

What was measured:
[1] = target: Beta Secretase enzyme (BACE) (Homo sapiens (Human), UniProt P56817); assay: In vitro enzymatic BACE FRET assay; format: biochemical; details: read-out: BACE1 Enzyme assay IC50
Cathepsin D (Cat D) = Cathepsin D (Cat D) (Homo sapiens (Human), UniProt P07339); assay: In vitro enzymatic Cathepsin D (Cat D) FRET assay; format: biochemical; details: read-out: CatD IC50
Description: In Vitro Enzymatic Cathepsin D (Cat D) FRET (Fluorescence Resonance Energy Transfer) Assay
Recombinant Cat D was expressed in CHO cells. The assay buffer for CathepsinD is 0.05 M citrate pH 3.5, 10% DMSO final, 5 mM CHAPS. […] The assays are effectively started by the addition of different FRET substrates (20 nM for Cat D) and the combination is incubated for one hour. The FRET assay is terminated with by addition of Tris buffer, which raises the pH to neutrality, and the fluorescence is determined. […] Proteolytic cleavage of the FRET substrate releases quenching of fluorescence (Cat D excitation 500 nm and emission 580 nm).

BACE = BACE (Homo sapiens (Human), UniProt P56817); assay: In vitro BACE cell-based assay (Aβ40 in conditioned medium, sandwich ELISA)
Sequence of BACE (P56817 46-501, species assumed): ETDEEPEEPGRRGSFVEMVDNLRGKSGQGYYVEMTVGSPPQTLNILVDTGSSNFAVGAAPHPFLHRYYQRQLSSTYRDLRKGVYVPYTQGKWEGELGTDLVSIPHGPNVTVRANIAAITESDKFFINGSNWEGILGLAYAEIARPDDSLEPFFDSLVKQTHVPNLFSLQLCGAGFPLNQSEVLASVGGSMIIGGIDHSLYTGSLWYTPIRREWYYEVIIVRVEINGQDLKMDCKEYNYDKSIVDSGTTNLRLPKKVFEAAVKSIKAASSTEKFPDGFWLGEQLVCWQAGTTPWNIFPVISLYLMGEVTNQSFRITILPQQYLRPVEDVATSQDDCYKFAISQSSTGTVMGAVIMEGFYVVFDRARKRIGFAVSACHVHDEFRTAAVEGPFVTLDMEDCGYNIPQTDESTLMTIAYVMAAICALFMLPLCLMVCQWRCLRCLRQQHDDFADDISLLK

Sequence of Cathepsin D (Cat D) (P07339 65-412, species assumed): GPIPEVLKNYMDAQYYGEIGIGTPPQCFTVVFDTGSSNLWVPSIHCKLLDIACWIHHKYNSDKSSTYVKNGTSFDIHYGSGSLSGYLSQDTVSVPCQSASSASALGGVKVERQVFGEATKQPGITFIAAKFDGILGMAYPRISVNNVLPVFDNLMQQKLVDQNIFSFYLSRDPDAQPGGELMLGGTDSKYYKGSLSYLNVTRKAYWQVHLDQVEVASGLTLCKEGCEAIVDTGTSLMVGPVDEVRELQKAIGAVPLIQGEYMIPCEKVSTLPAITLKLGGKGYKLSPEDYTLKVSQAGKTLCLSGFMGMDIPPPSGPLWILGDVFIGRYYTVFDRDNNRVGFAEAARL
Sequence of Beta Secretase enzyme (BACE) (P56817 46-501): as the sequence (P56817 46-501, species assumed) above

| SMILES | IC50 [1] | IC50 (Cathepsin D (Cat D)) | IC50 (BACE) |
| --- | --- | --- | --- |
| Cc1cc(OC(F)F)cnc1C(=O)Nc1cc(F)c(Cl)c([C@@]2(CF)N=C(N)O[C@@H]3C[C@@H]32)c1 [Example 158, N-(3-((1R,5S,6R)-3-amino-5-(fluoromethyl)-2-oxa-4-azabicyclo[4.1.0]hept-3-en-5-yl)-4-chloro-5-fluorophenyl)-5-(difluoromethoxy)-3-methylpicolinamide] | 0.0403 µM | 230 µM | 0.0383 µM |
| NC1=N[C@@](c2cc(NC(=O)c3cnc(OCC(F)(F)F)cn3)ccc2F)(C(F)F)[C@H]2C[C@H]2O1 [Example 160, N-(3-((1R,5S,6R)-3-amino-5-(difluoromethyl)-2-oxa-4-azabicyclo[4.1.0]hept-3-en-5-yl)-4-fluorophenyl)-5-(2,2,2-trifluoroethoxy)pyrazine-2-carboxamide] | 0.0291 µM | 2000 µM | 0.0808 µM |
| CC(C)n1cc(Cl)c(C(=O)Nc2ccc(F)c([C@@]3(C(F)F)N=C(N)O[C@@H]4C[C@@H]43)c2)n1 [Example 161, N-(3-((1R,5S,6R)-3-amino-5-(difluoromethyl)-2-oxa-4-azabicyclo[4.1.0]hept-3-en-5-yl)-4-fluorophenyl)-4-chloro-1-isopropyl-1H-pyrazole-3-carboxamide] | > 40 µM | 295 µM | > 15.6 µM |
| NC1=N[C@](CF)(c2cc(NC(=O)c3nn(C(F)F)cc3Cl)ccc2F)[C@H]2C[C@H]2O1 [Example 164, N-(3-((1R,5S,6R)-3-amino-5-(fluoromethyl)-2-oxa-4-azabicyclo[4.1.0]hept-3-en-5-yl)-4-fluorophenyl)-4-chloro-1-(difluoromethyl)-1H-pyrazole-3-carboxamide] | 0.0232 µM | 950 µM | 0.0109 µM |
| NC1=N[C@@](c2cc(NC(=O)c3cnc(OCc4nccs4)cn3)ccc2F)(C(F)F)[C@H]2C[C@H]2O1 [Example 165, N-(3-((1R,5S,6R)-3-amino-5-(difluoromethyl)-2-oxa-4-azabicyclo[4.1.0]hept-3-en-5-yl)-4-fluorophenyl)-5-(thiazol-2-ylmethoxy)pyrazine-2-carboxamide] | 0.0192 µM | 383 µM | 0.0606 µM |
| Cc1nc(C(=O)Nc2ccc(F)c([C@@]3(C(F)F)N=C(N)O[C@@H]4C[C@@H]43)c2)co1 [Example 166, N-(3-((1R,5S,6R)-3-amino-5-(difluoromethyl)-2-oxa-4-azabicyclo[4.1.0]hept-3-en-5-yl)-4-fluorophenyl)-2-methyloxazole-4-carboxamide] | 0.0613 µM | 373 µM | 0.103 µM |
| NC1=N[C@@](c2cc(NC(=O)c3cnc(OCc4cscn4)cn3)ccc2F)(C(F)F)[C@H]2C[C@H]2O1 [Example 169, N-(3-((1R,5S,6R)-3-amino-5-(difluoromethyl)-2-oxa-4-azabicyclo[4.1.0]hept-3-en-5-yl)-4-fluorophenyl)-5-(thiazol-4-ylmethoxy)pyrazine-2-carboxamide] | 0.0366 µM | 582 µM | 0.0418 µM |
| NC1=N[C@@](c2cc(NC(=O)c3cnc(OCc4cncs4)cn3)ccc2F)(C(F)F)[C@H]2C[C@H]2O1 [Example 170, N-(3-((1R,5S,6R)-3-amino-5-(difluoromethyl)-2-oxa-4-azabicyclo[4.1.0]hept-3-en-5-yl)-4-fluorophenyl)-5-(thiazol-5-ylmethoxy)pyrazine-2-carboxamide] | 0.0867 µM | 445 µM | 0.56 µM |
| NC1=N[C@@](c2cc(NC(=O)c3cnc(OCc4cnco4)cn3)ccc2F)(C(F)F)[C@H]2C[C@H]2O1 [Example 171, N-(3-((1R,5S,6R)-3-amino-5-(difluoromethyl)-2-oxa-4-azabicyclo[4.1.0]hept-3-en-5-yl)-4-fluorophenyl)-5-(oxazol-5-ylmethoxy)pyrazine-2-carboxamide] | 0.0811 µM | 846 µM | 0.323 µM |
| NC1=N[C@@](c2cc(NC(=O)c3ccc(OCc4nccs4)cn3)ccc2F)(C(F)F)[C@H]2C[C@H]2O1 [Example 172, N-(3-((1R,5S,6R)-3-amino-5-(difluoromethyl)-2-oxa-4-azabicyclo[4.1.0]hept-3-en-5-yl)-4-fluorophenyl)-5-(thiazol-2-ylmethoxy) picolinamide] | 0.0824 µM | 360 µM | 0.446 µM |
| NC1=N[C@@](c2cc(NC(=O)c3ccc(OCc4ncco4)cn3)ccc2F)(C(F)F)[C@H]2C[C@H]2O1 [Example 173, N-(3-((1R,5S,6R)-3-amino-5-(difluoromethyl)-2-oxa-4-azabicyclo[4.1.0]hept-3-en-5-yl)-4-fluorophenyl)-5-(oxazol-2-ylmethoxy) picolinamide] | 0.0366 µM | 1010 µM | 0.0789 µM |
| Cc1csc(C(=O)Nc2ccc(F)c([C@@]3(C(F)F)N=C(N)O[C@@H]4C[C@@H]43)c2)c1 [Example 176, N-(3-((1R,5S,6R)-3-amino-5-(difluoromethyl)-2-oxa-4-azabicyclo[4.1.0]hept-3-en-5-yl)-4-fluorophenyl)-4-methylthiophene-2-carboxamide] | 0.191 µM | 835 µM | 0.156 µM |
| NC1=N[C@@](c2cc(NC(=O)c3cc(Cl)cs3)ccc2F)(C(F)F)[C@H]2C[C@H]2O1 [Example 177, N-(3-((1R,5S,6R)-3-amino-5-(difluoromethyl)-2-oxa-4-azabicyclo[4.1.0]hept-3-en-5-yl)-4-fluorophenyl)-4-chlorothiophene-2-carboxamide] | 0.185 µM | 762 µM | 0.373 µM |
| N#Cc1csc(C(=O)Nc2ccc(F)c([C@@]3(C(F)F)N=C(N)O[C@@H]4C[C@@H]43)c2)c1 [Example 178, N-(3-((1R,5S,6R)-3-amino-5-(difluoromethyl)-2-oxa-4-azabicyclo[4.1.0]hept-3-en-5-yl)-4-fluorophenyl)-4-cyanothiophene-2-carboxamide] | 1.07 µM | 534 µM | 1.56 µM |
| NC1=N[C@@](c2cc(NC(=O)c3ccc(Cl)s3)ccc2F)(C(F)F)[C@H]2C[C@H]2O1 [Example 179, N-(3-((1R,5S,6R)-3-amino-5-(difluoromethyl)-2-oxa-4-azabicyclo[4.1.0]hept-3-en-5-yl)-4-fluorophenyl)-5-chlorothiophene-2-carboxamide] | 0.871 µM | 474 µM | 0.661 µM |
| NC1=N[C@@](c2cc(NC(=O)c3ccc(OCF)cn3)ccc2F)(C(F)F)[C@H]2C[C@H]2O1 [Example 180, N-(3-((1R,5S,6R)-3-amino-5-(difluoromethyl)-2-oxa-4-azabicyclo[4.1.0]hept-3-en-5-yl)-4-fluorophenyl)-5-(fluoromethoxy) picolinamide] | 0.0918 µM | > 1.65 µM | 0.0449 µM |
| NC1=N[C@@](c2cc(NC(=O)c3csc(Cl)c3)ccc2F)(C(F)F)[C@H]2C[C@H]2O1 [Example 181, N-(3-((1R,5S,6R)-3-amino-5-(difluoromethyl)-2-oxa-4-azabicyclo[4.1.0]hept-3-en-5-yl)-4-fluorophenyl)-5-chlorothiophene-3-carboxamide] | 1.4 µM | 580 µM | 1.14 µM |
| CS(=O)(=O)c1ccc(C(=O)Nc2ccc(F)c([C@@]3(C(F)F)N=C(N)O[C@@H]4C[C@@H]43)c2)nc1 [Example 182, N-(3-((1R,5S,6R)-3-amino-5-(difluoromethyl)-2-oxa-4-azabicyclo[4.1.0]hept-3-en-5-yl)-4-fluorophenyl)-5-(methylsulfonyl) picolinamide] | 13.1 µM | 565 µM | 3.36 µM |
| NC1=N[C@](CF)(c2cc(NC(=O)c3ccc(OCF)cn3)ccc2Cl)[C@H]2C[C@H]2O1 [Example 183, N-(3-((1R,5S,6R)-3-amino-5-(fluoromethyl)-2-oxa-4-azabicyclo[4.1.0]hept-3-en-5-yl)-4-chlorophenyl)-5-(fluoromethoxy) picolinamide] | 0.0998 µM | 882 µM | 0.0218 µM |
| Cc1cc(OCC#N)cnc1C(=O)Nc1ccc(F)c([C@@]2(C(F)F)N=C(N)O[C@@H]3C[C@@H]32)c1 [Example 184, N-(3-((1R,5S,6R)-3-amino-5-(difluoromethyl)-2-oxa-4-azabicyclo[4.1.0]hept-3-en-5-yl)-4-fluorophenyl)-5-(cyanomethoxy)-3-methylpicolinamide] | 0.357 µM | 1090 µM | 0.62 µM |
| Cc1cnc(C(=O)Nc2ccc(F)c([C@@]3(C(F)F)N=C(N)O[C@@H]4C[C@@H]43)c2)c(C)c1 [Example 185, N-(3-((1R,5S,6R)-3-amino-5-(difluoromethyl)-2-oxa-4-azabicyclo[4.1.0]hept-3-en-5-yl)-4-fluorophenyl)-3,5-dimethylpicolinamide] | 0.107 µM | 753 µM | 0.148 µM |
| Cc1cc(C(F)F)cnc1C(=O)Nc1ccc(F)c([C@@]2(C(F)F)N=C(N)O[C@@H]3C[C@@H]32)c1 [Example 186, N-(3-((1R,5S,6R)-3-amino-5-(difluoromethyl)-2-oxa-4-azabicyclo[4.1.0]hept-3-en-5-yl)-4-fluorophenyl)-5-(difluoromethyl)-3-methylpicolinamide] | 0.061 µM | 768 µM | 0.0345 µM |
| COc1ccc(C(=O)Nc2ccc(F)c([C@@]3(C(F)F)N=C(N)O[C@@H]4C[C@@H]43)c2)nn1 [Example 187, N-(3-((1R,5S,6R)-3-amino-5-(difluoromethyl)-2-oxa-4-azabicyclo[4.1.0]hept-3-en-5-yl)-4-fluorophenyl)-6-methoxypyridazine-3-carboxamide] | 3.44 µM | 667 µM | 1.41 µM |
| Cc1cc(C(F)(F)F)cnc1C(=O)Nc1ccc(F)c([C@@]2(C(F)F)N=C(N)O[C@@H]3C[C@@H]32)c1 [Example 188, N-(3-((1R,5S,6R)-3-amino-5-(difluoromethyl)-2-oxa-4-azabicyclo[4.1.0]hept-3-en-5-yl)-4-fluorophenyl)-3-methyl-5-(trifluoromethyl) picolinamide] | 0.04 µM | 159 µM | 0.0279 µM |
